Measured values as given in US8334107B2, “Detection systems utilizing supported lipid bilayers” (priority 2005, dated 2012).

Assays:
[1] = tested on: DMPG supported on MS-PPE; test: Binding curves of MLT to DMPG supported on MS-PPE (superquenching flow cytometric assay); conditions: flow cytometry, 10 μM AQS
Method: FIGS. 18A-B show binding curves for MLT-disruption of supported lipid bilayer by natural MLT (nMLT; FIG. 18A), and synthetic MLT (sMLT; FIG. 18B). Fluorescence intensity was normalized to that without MLT as determined by flow cytometry. The error bars represent the standard deviation (SD) of the means of normalized histograms obtained for 3 replicates.
(§1) Bead suspensions of 2.5×10^5 DMPG-coated MS-PPE in 200 μL of PBS were analyzed using a FACScan flow cytometer (Becton-Dickinson, Sunnyvale, Calif.) with excitation at 488 nm. Fluorescence signals were acquired on FL-1 channel (525 nm) using log amplification and analyzed with the CellQuest software. Kinetic analysis of disruption of supported lipid bilayer by melittin was performed by acquiring real-time data with continuous mixing of samples (10^6 MS-PPE in 800 μl of PBS) using a magnetic stirrer. The raw data were analyzed using IDL Query software developed by Bruce Edwards (Cancer Center, University of New Mexico, Albuquerque, N. Mex.).
From FIG. 18, the association constant (corresponding to the reciprocal of the point of half saturation) for nMLT and sMLT with DMPG were 5×10^6 M^−1 and 1.7×10^6 M^−1, respectively. […] Lower concentrations of nMLT, in comparison to sMLT, were required to disrupt the DMPG lipid bilayer. This might be attributed to the fact that nMLT contains some phospholipase A2 (PLA2) as a contaminant. […]

[2] = tested on: DMPG bilayer on PPE-coated beads; test: Microfluidic assay: detection of lipid bilayer disruption by fluorescence superquenching; assay type: biochemical; conditions: injected as 1:1 mixture with 120 μM AQS
Method: The preparation of microcolumns with PPE-coated, silica beads was similar to that of with fluorescein containing beads. A 10 μL aliquot of 120 μM AQS was injected to the column. After a certain period of time, a 10 μL aliquot of 1:1 mixture of 120 μM AQS and 220 μM melittin was injected. During this process, the PPE-coated silica bead segment was irradiated at 488 nm and its fluorescence emission intensity was measured at 520 nm every 10 minutes. This experiment was repeated, while injecting 220 μM melittin first, and then 120 μM AQS.
The feasibility of using superquenching as a method of detecting membrane-toxin interactions in microcolumns was also investigated. The fluorescence intensity of the cationic polyelectrolyte poly(p-phenylene-ethynylene) polymer (PPE) can be super-quenched by the quencher 9,10-anthraquinone-2,6-disulfonic acid (AQS). […] It has been observed in flow cytometric studies that formation of DMPG membranes on PPE-coated beads will quench the PPE fluorescence to some extent. The initial rise in fluorescence intensity was probably due to the unquenching of the PPE, due to the removal of lipid bilayers from PPE-coated beads through melittin interaction, whereas the decrease in fluorescence corresponded to superquenching of PPE by AQS after disruption of DMPG bilayer by melittin. […]

[3] = tested on: DMPG lipid bilayer on MS-PPE; test: Disruption of DMPG lipid bilayer on MS-PPE detected by superquenching with AQS, flow cytometry; assay type: biochemical; conditions: 10 μM AQS; sMLT 3.8 μM, nMLT 1.6 μM
Method: Lipid bilayers were disrupted by adding Triton X-100® detergent to the bead suspension to a final concentration of 0.25% (w/v).
Bead suspensions of 2.5×10^5 PPE-coated microspheres in 200 μL PBS were analyzed using a FACScan flow cytometer (Becton-Dickinson, Sunnyvale, Calif.) with excitation at 488 nm. Fluorescence signals were acquired on the FL-1 channel (525 nm) using log amplification and analyzed with the CellQuest software.
as §1
Because an anionic lipid was used to form a lipid bilayer around MS-PPE, it was expected that MLT will disrupt the DMPG lipid bilayer by such a detergent-like action. This was tested by adding 10 μM AQS to DMPG-coated MS-PPE followed by treatment with one of the following: Triton X-100® detergent, synthetic MLT (sMLT), or natural MLT (nMLT) and immediately reading the fluorescence by flow cytometry. […] These histograms resemble the ones reported previously for MS-PPE, without a lipid coating, in absence and in presence of AQS.
The kinetics of disruption of supported lipid bilayer by MLT were monitored by measuring real-time changes in fluorescence intensity by flow cytometry (FIG. 19). Suspensions of 10^6 DMPG-coated MS-PPE in 800 μL of PBS were treated with AQS at a final concentration of 10 μM, then with either sMLT, Triton X-100® detergent, or no treatment. […] Treatment with sMLT in the absence of AQS led to an increase in normalized fluorescence (FIG. 19, trace A). This can be attributed to disruption of the lipid bilayer by sMLT, and is consistent with a reversal of the slight quenching of fluorescence caused by the formation of a DMPG lipid bilayer over MS-PPE. Addition of AQS alone to DMPG-coated MS-PPE (FIG. 19, trace C) led to a 20% reduction in fluorescence as reported earlier. Addition of Triton X-100® detergent to DMPG-coated MS-PPE after the addition of AQS (first dip in trace E, FIG. 19) caused immediate decrease in fluorescence to ˜10% of its original value (second dip in trace E, FIG. 19). In contrast, addition of sMLT, after the addition of AQS, (FIG. 19, trace D) led to a gradual reduction of fluorescence intensity to ˜20% of the original value. Although MLT forms dimers at high concentrations (Dempsey, C. E. Biochim. Biophys. Acta 1990, 1031, 143-161), it is monomeric at the concentrations used in this study. On the other hand, Triton X-100® detergent forms micelles at the concentration used in this study.

[4] = tested on: EPC vesicles; conditions: incubation with α-toxin; cited from earlier work
[5] = tested on: EPC bilayer on porous silica beads; test: Suspension study: release of fluorescein dye from lipid bilayer coated porous silica beads; assay type: biochemical; conditions: all three concentrations 15, 45 and 250 μg/mL
Method: Lipid coatings on beads were disrupted using 10% Triton X-100. Each sample in micro-centrifuge tubes contained 5 mg of lipid bilayer coated, fluorescein entrapped beads in 200 μL of Tris buffer. Samples were centrifuged and 100 μL aliquots of supernatant were mixed with either 100 μL of Tris buffer or 100 μL of 10% Triton X-100® detergent in separate centrifuge tubes. The fluorescence intensity of each mixture was immediately (time=0) recorded. Each mixture was mixed with its respective bead sample in centrifuge tube and incubated at 25° C. in the dark. After 30 min, samples were centrifuged and fluorescent intensity of the supernatants was measured. Beads were resuspended in their respective supernatants. Fluorescence intensity was again measured at 90 and 150 min.
Experimental procedures were similar to the Triton X-100® detergent based analysis. For experiments with α-toxin, three different toxin concentrations: 15, 45 and 250 μg/mL were used at 37° C. and 25° C. Beads coated with EPC were used. In the experiments with melittin, 220 μM melittin was used with beads coated with either 100% EPC, 10:90 (molar ratio) mixture of DMPG and EPC or an 80:20 mixture of DMPG and DMPC. All melittin experiments were conducted at 25° C.
Previous suspension studies on disruption of lipid bilayers have been performed with small unilamellar vesicles where disruption of the lipid bilayer membranes was detected by monitoring the unquenching of a highly concentrated, encapsulated dye. In the present work disruption was monitored via release of fluorescein dye from porous beads, by measuring the increase in fluorescence intensity of the supernatant at 520 nm. Beads were first suspended in Tris buffer containing the disruptor. After selected time periods, beads were sedimented by centrifuging and a portion of the supernatant was taken for the measurement. The measured portion was added back to the bead sample to permit continuous monitoring. The scattering effect that was present in vesicle based studies was minimized by measuring only the supernatant after centrifugation of the beads.

[6] = tested on: supported lipid bilayer surrounding a porous bead; test: Kinetics of disruption of supported lipid bilayer by α-toxin, pH-reactive fluorescein in porous beads, flow cytometry; assay type: biochemical; conditions: pH outside 11.0, inside 2.6
Text: FIGS. 4A-B illustrates the effects of alpha-toxin on lipid bilayer integrity. FIG. 4A graphically illustrates dose-dependent release of fluorescent dye from a lipid bilayer coated microbead after introduction of different concentrations of alpha-toxin, a membrane-associated pore-forming protein from Staphylococcus aureus. The normalized fluorescence intensity (at 520 nm) of the supernatant is plotted versus time for EPC-coated, fluorescein filled porous beads when using different concentrations of α-toxin added. 10% Triton was added after 150 min. FIG. 4B illustrates the kinetics of disrupting a supported lipid bilayer by α-toxin as monitored by recording changes in fluorescence intensity every 2 minutes by flow cytometry. The lipid bilayer surrounded a porous bead that contains a pH-reactive molecule (fluorescein), and the pH outside the beads was adjusted to 11.0, whereas inside the beads the pH was 2.6. As illustrated, increasing amounts of α-toxin increases the fluorescence emitted from within the beads.
In another experiment a lipid bilayer surrounding a porous bead that contains a pH-reactive molecule (fluorescein) was exposed to α-toxin. The pH outside the beads was adjusted to 11.0, whereas inside the beads the pH was 2.6. The kinetics of disruption of supported lipid bilayer by α-toxin were monitored by recording changes in fluorescence intensity every 2 minutes by flow cytometry. For the first 8 minutes there was no significant change in fluorescence intensity (FIG. 4B). However, after 8 minutes there was a gradual increase in fluorescence intensity (FIG. 4B) resulting from insertion of α-toxin into the supported lipid bilayer thus forming channels permeable to hydrogen cations and hydroxyl ions, which reduces the difference in the pH outside and inside the microspheres. […] This can be attributed to insertion of many α-toxin channels at this high concentration leading to disruption of the lipid bilayer and immediate equilibration of the pH inside and outside the porous microspheres.

| Substance | association constant (reciprocal of the point of half saturation) with DMPG [1] | change in fluorescence intensity of bead segment [2] | quenching of the MS-PPE after treatment [3] | dye encapsulated in EPC vesicles released [4] | increase in fluorescence intensity after 150 min ([5]; 25° C.) | increase in fluorescence intensity after 150 min ([5]; 37° C.) | change in fluorescence intensity ([6]; 45 μg/mL) | concentration at which the increase in fluorescence intensity reached its maximum [6] | time without significant change in fluorescence intensity before gradual increase ([6]; read every 2 minutes) |
| --- | --- | --- | --- | --- | --- | --- | --- | --- | --- |
| nMLT: natural melittin from Sigma, contains some phospholipase A2 as a contaminant | 5e+06 M⁻¹ | slight rise in fluorescence intensity followed by a significant decrease | comparable to that occurring on addition of Triton X-100 | – | – | – | – | – | – |
| α-toxin: membrane active pore-forming protein secreted by Staphylococcus aureus, ~33 kDa | – | – | – | 27% | about 3 fold | about 6.5 fold | did not cause a change in fluorescence intensity different from the baseline | 15 µg/mL | 8 min |
